Patent US11345700B2, “Methods of preparing inhibitors of influenza viruses replication” (priority 2013, dated 2022)

Test system: influenza A strains
Test: microbe, parasite or virus in culture
Format: cell-based
Details: H3N2, MDCK, read-out: Cell Protection Assay EC50 ± SD, A/Texas/12/2007, H3N2, amantadine resistance (phenotypic), oseltamivir carboxylate resistance NA 119V

O=C(O)[C@H]1[C@H]2CC[C@H](CC2)[C@@H]1Nc1nc(-c2c[nH]c3ncc(F)cc23)ncc1F [Compound (1)]
EC50: 0.65 ± 0.22 nM
